Experimental data published in US20250134800A1, “Biomass Extract For Skin Applications” (EMBION TECHNOLOGIES SA, priority 2022, published 2025).

Tests used:
[1] = system: S. aureus; test: Inhibitory study on colonized Reconstructed Human Epidermis (RHE), viable count; type: cell-based, Staphylococcus aureus
From the text: The principal aim of the present study was to evaluate the potential efficacy of BSG-derived preparations on a more biologically relevant in vitro preclinical model based on colonized Reconstructed Human Epidermis (RHE). The main focus was given to: • I. to counteract Staphylococcus aureus adhesion and its proliferative capacity. The rationale was based on the possibility of the ingredients to balance the inflammatory reaction induced by the bacterium, reducing its adhesion and growth on RHE model (inhibitory study); • II. the prebiotic effect of the 3 preparations versus Staphylococcus epidermidis (prebiotic study). The rationale was based on the possibility of the ingredients to protect and biostimulant the normal skin microbiota; • III. their biological impact on sterile RHE model. The rationale was based on the possibility that the ingredients to enhance or balance the innate immune response.
For this study the following BSG-derived preparations were used: • for inhibitory and ingredient impact effects: P1 at 1%, P3 at 2% and P4 at 4%; • for prebiotic effect: […] at 1%, P3 at 2% and P5 at 1%.
SkinEthic^@ Reconstituted Human Epidermis 0.5 cm^2 is a reconstructed epidermis of normal human keratinocytes. Cells are grown on inert polycarbonate filters in chemically defined medium, for 17 days. The model reproduces epidermal morphology and it has been fully characterized. The good barrier function, batch reproducibility and low variability in terms of permeability for probe molecules have been described in Literature compared to human ex-vivo models. The RHE batch was tested for the absence of HIV1 and 2 antibodies, hepatitis C antibodies and hepatitis B antigen HBs. On cells from the donors, was verified the absence of bacteria, fungus and mycoplasma. The maintenance medium was tested for sterility.
Two days before the test, bacterial strains (S. aureus and S. epidermidis) were daily inoculated onto culture medium (BHI agar plate) and incubated at 37° C. in aerobic conditions for at least 24 h in order to obtain a fresh culture. The day of the colonization, bacterial strains have been resuspended in sterile saline solution at the required concentration range. Each starting bacterial inoculum concentration was checked by spectrophotometric OD measure and adjusted to obtain a range of about 10^7-10^8 UFC/mL (OD=0.1); it was then diluted 10-fold to obtain a final range concentration of 10^3-10^4 UFC/tissue for the inhibitory study and 10^4-10^5 UFC/tissue for prebiotic study. The starting inoculum level was also confirmed by serial decimal dilutions and viable counts on agar plates (BHI).
For both inhibitory and prebiotic RHE were pre-treated twice (overnight and 1 h before colonization respectively with 50 uL and 30 uL) on the apical part (directly spread on tissue surface) and left incubated at 37° C. (with CO2 5%) up to the colonization. Pre-treated RHE dedicated to inhibitory and prebiotic studies were colonized with 30 μL of the bacterial suspension previously obtained (respectively with S. aureus for inhibitory study and S. epidermidis for prebiotic study) and incubated at 37° C. (with CO2 5%) up to the required time point (24 h). RHE sterile were not colonized pre-treated twice (overnight and 1 h before colonization respectively with 50 uL and 30 uL) on the apical part (directly spread on tissue surface) and left incubated at 37° C. (with CO2 5%) up to the required time point (24 h). […]

[2] = system: Staphylococcus aureus (MRSA) ATCC 33591; test: Microdilution assay in liquid broth, viable count on agar plates; type: cell-based; conditions: positive controls at 4%, up to 24 h
Procedure: (§1) A microbiological screening study on liquid broth was performed to assess the activity (bacterial growth) of 5 preparations (P1, P2, P3, P4 and P5) on two Staphylococcus species: (1) Staphylococcus aureus (MRSA) ATCC 33591 as potential skin pathogen and (2) Staphylococcus epidermidis ATCC 12228 as commensal strain in healthy skin. With the aim to assess a potential and strain specific antimicrobial or prebiotic activity vs Staphylococcus spp and to validate the hypothesis that the ingredients may have a prebiotic effect (on S. epidermidis) and meanwhile negatively impacting the viability or growth rate (on S. aureus), the experimental results are presented below.
(§2) To assess a potential and strain specific antimicrobial or prebiotic activity vs Staphylococcus spp.: a microdilution assay (viable count on agar plates) in liquid broth was performed using 3 different concentrations, 4%-2%-1% for each ingredient, compared to inulin and glucose as carbon source and prebiotic reference. […]
(§3) The growth rate checked by viable count (CFU/mL) was performed to quantify the number of residual viable cells present in the test cultures and they were then expressed as Log values.

[3] = system: Staphylococcus epidermidis ATCC 12228; test: as above; type: cell-based; conditions: positive controls at 4%, up to 24 h
Procedure: as §1, §2, §3

[4] = RHE model after 2 days, vs colonized control, P1 1%, P3 2%, P4 4%, Chlorexidine 1%
[5] = RHE model after 2 days, P1 1%, P3 2%, P4 4%, Chlorexidine 1%

Row | Molecule | bacterial growth on RHE compared to the colonized control ([1]; P3 at 2%, P4 at 4%, REF Chlorexidine 1%) | Apical fraction Log reductions [1, 4] [Log] | Homogenate fraction Log reductions [1, 4] [Log] | Apical fraction Log (Mean) viable count [1, 5] [Log] | Homogenate fraction Log (Mean) viable count [1, 5] [Log] | growth compared with inoculum count [2] | growth compared with inoculum count [3]
1 | N=C(NCCCCCCNC(=N)NC(=N)Nc1ccc(Cl)cc1)NC(=N)Nc1ccc(Cl)cc1 [REF, Chlorexidine] | no bacterial growth | >3.26 | >3.00 | <2.00 | <2.00 |  | 
2 | Inulin |  |  |  |  |  | growth similar to the inoculum count | growth similar to the inoculum count
